In PubChem BioAssay (NCI) one finds TGI data, which are given here for twelve compounds.

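Test compounds were applied to cells in 96-well plates for 48 hours at 5 doses. TGI is the concentration that stops growth completely.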

Among the test systems are MDA-MB-435; EKVX NSCLC; SK-MEL-5 melanoma; LOX IMVI melanoma; HOP-92 NSCLC; HCT-15 colon; RPMI-8226 leukemia; SF-268 CNS; SK-OV-3 ovarian; HT29 colon; NCI/ADR-RES ovarian; NCI-H226 lung; SK-MEL-2 melanoma; SW-620 colon; TK-10 renal; ACHN renal; KM12 colon; UO-31 renal; SNB-75 CNS; OVCAR-8 ovarian.
Common to all, as to assay: NCI anticancer screen, dose series, 48 h

Consider `N/C(=N\N=C\c1c[nH]c2cc(C(F)(F)F)ccc2c1=O)NO`, for which the TGI with MDA-MB-435, in the experiment with EKVX NSCLC, with SK-MEL-5 melanoma, in the experiment with LOX IMVI melanoma, with HOP-92 NSCLC and in the experiment on HCT-15 colon was greater than 10 µM throughout. Moreover, the TGI in the experiment on RPMI-8226 leukemia, with SF-268 CNS, with SK-OV-3 ovarian, in the experiment on HT29 colon, with NCI/ADR-RES ovarian and in the experiment on NCI-H226 lung was greater than 10 µM throughout. The TGI with SK-MEL-2 melanoma, in the experiment with SW-620 colon, in the experiment on TK-10 renal, in the experiment on ACHN renal, with KM12 colon and in the experiment on UO-31 renal was greater than 10 µM throughout. Also, the TGI in the experiment with SNB-75 CNS is 9.03 µM; with OVCAR-8 ovarian, greater than 10 µM.

Consider `O=C(CC(C(=O)c1ccco1)c1cccs1)c1cccs1` (stereo not given), for which the TGI was greater than 100 µM with MDA-MB-435; 97.8 µM with EKVX NSCLC; greater than 100 µM in the experiment on SK-MEL-5 melanoma; greater than 100 µM in the experiment on LOX IMVI melanoma; greater than 100 µM in the experiment with HOP-92 NSCLC; greater than 100 µM with HCT-15 colon. In addition, the TGI in the experiment with RPMI-8226 leukemia, in the experiment with SF-268 CNS, in the experiment on SK-OV-3 ovarian, in the experiment on HT29 colon, in the experiment with NCI/ADR-RES ovarian and in the experiment on NCI-H226 lung was greater than 100 µM throughout. For the same compound, the TGI with SK-MEL-2 melanoma, in the experiment with SW-620 colon, in the experiment with TK-10 renal, with ACHN renal, in the experiment on KM12 colon and in the experiment on UO-31 renal was greater than 100 µM in each case. The TGI in the experiment with SNB-75 CNS and in the experiment with OVCAR-8 ovarian was greater than 100 µM throughout.

`Cc1ccc2nc(-c3ccc(-n4c(C)nc(=O)c(-c5ccc(F)cc5)c4C)cc3)sc2c1`: the TGI in the experiment with MDA-MB-435 was 32.2 µM; in the experiment with EKVX NSCLC, 30 µM; with SK-MEL-5 melanoma it was 24.5 µM; in the experiment with LOX IMVI melanoma, 53.6 µM; with HOP-92 NSCLC, 36.9 µM; in the experiment on HCT-15 colon, 34.4 µM. Further, the TGI worked out at 39.6 µM in the experiment on RPMI-8226 leukemia; 53.9 µM with SF-268 CNS; 29.3 µM in the experiment with SK-OV-3 ovarian; 30.1 µM in the experiment on HT29 colon; 35 µM in the experiment on NCI/ADR-RES ovarian; 41.6 µM in the experiment with NCI-H226 lung. For the same compound, the TGI in the experiment with SK-MEL-2 melanoma is 35.4 µM; in the experiment with SW-620 colon, 57.2 µM; with TK-10 renal it was 30.8 µM; in the experiment on ACHN renal, 28.4 µM; in the experiment with KM12 colon it was 38.4 µM; with UO-31 renal it was 30.6 µM. In addition, the TGI in the experiment with SNB-75 CNS was found to be 27.4 µM; in the experiment on OVCAR-8 ovarian, 42.9 µM.

`N=c1nc2n(cc1F)[C@@H]1O[C@H](CO)[C@@H](O)[C@@H]1O2`: the TGI in the experiment on MDA-MB-435 is greater than 100 µM; in the experiment on EKVX NSCLC, greater than 100 µM; in the experiment on SK-MEL-5 melanoma, greater than 74.7 µM; in the experiment on LOX IMVI melanoma, greater than 100 µM; in the experiment on HOP-92 NSCLC it was greater than 65.1 µM; in the experiment with HCT-15 colon, greater than 100 µM. For the same compound, the TGI in the experiment on RPMI-8226 leukemia, in the experiment on SF-268 CNS, with SK-OV-3 ovarian, in the experiment with HT29 colon, with NCI/ADR-RES ovarian and with NCI-H226 lung was greater than 100 µM in each case. Also, the TGI is greater than 100 µM in the experiment with SK-MEL-2 melanoma; greater than 100 µM in the experiment with SW-620 colon; greater than 100 µM with TK-10 renal; greater than 34.4 µM in the experiment on ACHN renal; greater than 100 µM in the experiment on KM12 colon; greater than 42.6 µM in the experiment on UO-31 renal. Also, the results for the TGI with SNB-75 CNS and with OVCAR-8 ovarian were greater than 95 µM and greater than 100 µM, respectively.

As to `Cn1cc(-c2cnc(-c3cn(C)c4ccccc34)cn2)c2ccccc21`, the TGI is 7.38 µM with MDA-MB-435; greater than 100 µM with EKVX NSCLC; 25.3 µM in the experiment with SK-MEL-5 melanoma; 35.9 µM in the experiment with LOX IMVI melanoma; greater than 100 µM with HOP-92 NSCLC; 47.4 µM in the experiment with HCT-15 colon. For the same compound, the TGI with RPMI-8226 leukemia was greater than 44.4 µM; in the experiment with SF-268 CNS, greater than 87.5 µM; in the experiment with SK-OV-3 ovarian it was greater than 100 µM; in the experiment on HT29 colon it was 36.6 µM; in the experiment with NCI/ADR-RES ovarian, 40.7 µM; in the experiment on NCI-H226 lung, greater than 86.1 µM. Moreover, the TGI in the experiment on SK-MEL-2 melanoma is greater than 71.2 µM; with SW-620 colon, greater than 38.6 µM; in the experiment with TK-10 renal, greater than 100 µM; in the experiment with ACHN renal, greater than 94.6 µM; in the experiment with KM12 colon, 14.8 µM; in the experiment with UO-31 renal it was greater than 65 µM. Moreover, the TGI is 25.7 µM in the experiment on SNB-75 CNS and 44.5 µM in the experiment with OVCAR-8 ovarian.

In the case of `CCOC(=O)[C@H](O)[C@@H](O)C(=O)NCc1ccc(C(=O)c2ccccc2)cc1`, the TGI in the experiment with MDA-MB-435, in the experiment on EKVX NSCLC, in the experiment with SK-MEL-5 melanoma, in the experiment with LOX IMVI melanoma, in the experiment with HOP-92 NSCLC and in the experiment with HCT-15 colon was greater than 100 µM throughout. Moreover, the TGI with RPMI-8226 leukemia, in the experiment with SF-268 CNS, in the experiment with SK-OV-3 ovarian, in the experiment with HT29 colon, in the experiment on NCI/ADR-RES ovarian and in the experiment with NCI-H226 lung was greater than 100 µM each time. In addition, the TGI in the experiment with SK-MEL-2 melanoma, in the experiment on SW-620 colon, in the experiment on TK-10 renal, in the experiment with ACHN renal, in the experiment on KM12 colon and in the experiment on UO-31 renal was greater than 100 µM throughout. The TGI with SNB-75 CNS and in the experiment with OVCAR-8 ovarian was greater than 100 µM throughout.

`O=C1C(Cl)=C(N2C(=O)CCCC2=O)C(=O)c2ccccc21`: the TGI turned out to be 44.9 µM in the experiment on MDA-MB-435; 33.2 µM in the experiment on EKVX NSCLC; 30.2 µM in the experiment on SK-MEL-5 melanoma; 42.4 µM with LOX IMVI melanoma; 9.29 µM in the experiment with HOP-92 NSCLC; 25.6 µM in the experiment with HCT-15 colon. For the same compound, the TGI in the experiment on RPMI-8226 leukemia is 40.9 µM; in the experiment on SF-268 CNS, greater than 100 µM; in the experiment with SK-OV-3 ovarian it was greater than 100 µM; with HT29 colon, 29.2 µM; in the experiment with NCI/ADR-RES ovarian, 95.3 µM; in the experiment with NCI-H226 lung, greater than 100 µM. Besides, the TGI with SK-MEL-2 melanoma is 49 µM; in the experiment on SW-620 colon, 48.3 µM; in the experiment with TK-10 renal it was 31.3 µM; in the experiment on ACHN renal, 21 µM; in the experiment on KM12 colon, greater than 100 µM; in the experiment with UO-31 renal it was 23 µM. For the same compound, the TGI was greater than 100 µM in the experiment on SNB-75 CNS and 23.9 µM in the experiment on OVCAR-8 ovarian.

For the compound `CCCCCC(=O)Nc1nc[nH]c1C(N)=O`, the TGI with MDA-MB-435, in the experiment on EKVX NSCLC, in the experiment on SK-MEL-5 melanoma, in the experiment with LOX IMVI melanoma, in the experiment on HOP-92 NSCLC and in the experiment with HCT-15 colon was greater than 100 µM in each case. In addition, the TGI with RPMI-8226 leukemia, with SF-268 CNS, in the experiment with SK-OV-3 ovarian, in the experiment on HT29 colon, in the experiment with NCI/ADR-RES ovarian and with NCI-H226 lung was greater than 100 µM in each case. Also, the TGI in the experiment with SK-MEL-2 melanoma, in the experiment on SW-620 colon, in the experiment with TK-10 renal, with ACHN renal, with KM12 colon and in the experiment on UO-31 renal was greater than 100 µM in each case. The TGI in the experiment on SNB-75 CNS and with OVCAR-8 ovarian was greater than 100 µM throughout.

Turning to `O=C1/C(=C/c2ccc(Cl)cc2)N=C(c2ccccc2)N1c1nc2ccccc2s1`, the TGI in the experiment on MDA-MB-435, in the experiment with EKVX NSCLC, in the experiment on SK-MEL-5 melanoma, with LOX IMVI melanoma, in the experiment on HOP-92 NSCLC and with HCT-15 colon was greater than 100 µM in each case. The TGI in the experiment with RPMI-8226 leukemia, in the experiment with SF-268 CNS, with SK-OV-3 ovarian, in the experiment on HT29 colon, with NCI/ADR-RES ovarian and in the experiment on NCI-H226 lung was greater than 100 µM each time. Besides, the TGI was 88.2 µM in the experiment with SK-MEL-2 melanoma; greater than 100 µM in the experiment with SW-620 colon; greater than 100 µM with TK-10 renal; greater than 100 µM in the experiment with ACHN renal; greater than 100 µM in the experiment with KM12 colon; greater than 100 µM in the experiment on UO-31 renal. Also, the TGI with SNB-75 CNS and in the experiment with OVCAR-8 ovarian was greater than 100 µM in each case.

Take `O=C(NNc1ccnc2cc(Cl)ccc12)/C(=C\c1ccccc1Cl)NC(=O)c1ccccc1`: the TGI was greater than 100 µM in the experiment on MDA-MB-435; greater than 100 µM in the experiment on EKVX NSCLC; 81.2 µM in the experiment on SK-MEL-5 melanoma; 32 µM with LOX IMVI melanoma; greater than 100 µM in the experiment with HOP-92 NSCLC; greater than 100 µM in the experiment with HCT-15 colon. In addition, the TGI in the experiment with RPMI-8226 leukemia is greater than 100 µM; with SF-268 CNS it was 85.1 µM; in the experiment with SK-OV-3 ovarian, greater than 100 µM; in the experiment with HT29 colon, greater than 100 µM; in the experiment with NCI/ADR-RES ovarian, 73.7 µM; in the experiment on NCI-H226 lung it was 67.6 µM. Moreover, the TGI with SK-MEL-2 melanoma is 46.1 µM; in the experiment on SW-620 colon, greater than 100 µM; in the experiment on TK-10 renal, greater than 100 µM; in the experiment on ACHN renal it was greater than 100 µM; with KM12 colon it was 51.6 µM; in the experiment with UO-31 renal, greater than 100 µM. Besides, the values for the TGI with SNB-75 CNS and with OVCAR-8 ovarian were greater than 100 µM and 43.5 µM, respectively.

As for `Nc1ccc(N=Nc2ccc(-c3ccc(O)cc3)cc2)c2ccc(S(=O)(=O)O)cc12`, the TGI with MDA-MB-435, in the experiment on EKVX NSCLC, in the experiment with SK-MEL-5 melanoma, with LOX IMVI melanoma, with HOP-92 NSCLC and in the experiment with HCT-15 colon was greater than 100 µM each time. Besides, the TGI with RPMI-8226 leukemia, in the experiment on SF-268 CNS, in the experiment with SK-OV-3 ovarian, with HT29 colon, in the experiment on NCI/ADR-RES ovarian and with NCI-H226 lung was greater than 100 µM in each case. In addition, the TGI with SK-MEL-2 melanoma, in the experiment with SW-620 colon, in the experiment with TK-10 renal, in the experiment on ACHN renal, with KM12 colon and in the experiment on UO-31 renal was greater than 100 µM each time. The TGI in the experiment with SNB-75 CNS and with OVCAR-8 ovarian was greater than 100 µM throughout.

For `C=CCC(CC=O)(C(=O)OCC)C(=O)OCC`, the TGI with MDA-MB-435, in the experiment on EKVX NSCLC, in the experiment with SK-MEL-5 melanoma, with LOX IMVI melanoma, with HOP-92 NSCLC and in the experiment on HCT-15 colon was greater than 100 µM throughout. The TGI with RPMI-8226 leukemia, in the experiment with SF-268 CNS, with SK-OV-3 ovarian, with HT29 colon, in the experiment on NCI/ADR-RES ovarian and with NCI-H226 lung was greater than 100 µM throughout. Besides, the TGI with SK-MEL-2 melanoma, with SW-620 colon, with TK-10 renal, in the experiment on ACHN renal, in the experiment on KM12 colon and with UO-31 renal was greater than 100 µM each time. Further, the TGI in the experiment on SNB-75 CNS and in the experiment on OVCAR-8 ovarian was greater than 100 µM in each case.
